Data reported in US6878722B2, “Substituted cycloalkyl P1′ hepatitis C virus inhibitors” (Bristol-Myers Squibb Company, priority 2002, dated 2005).

Key:
[1] = target: T1, HCV NS3/4A protease complex (BMS strain, genotype 1a) (Hepatitis C virus genotype 1a, UniProt P27958, C1454S); test: Recombinant HCV NS3/4A protease complex FRET peptide assay, BMS strain; type: biochemical; details: IC50 range, NS3/4A BMS Strain
T1 construct: DNA encoding the recombinant HCV NS3/4A protease complex (amino acids 1027 to 1711) for these strains; inferred from the pET21b vector and Ni-NTA purification; made in house; host or cells: Escherichia coli BL21 (DE3), pET21b
Method in brief: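 Recombinant NS3/4A complex (aa 1027–1711) with C-terminal three-lysine tail, C1711G and C1454S, expressed in E. coli BL21(DE3) and purified by Ni-NTA then Superdex-S200. Inhibition of the complex from each strain measured in vitro by FRET peptide cleavage.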

[2] = test system: HCV replicon in Huh7 cells; test: HCV replicon cell-based assay (FRET); details: Hepatitis C virus, Huh-7; HCV replicon; read-out: EC50 range
Method in brief: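 Huh7 cells stably carrying a genotype 1b HCV replicon (IRES-neo-EMCV-IRES-NS3-NS5B) were treated with compound for 4 days at 37 °C in 0.5% DMSO final. Lysates containing 10 μM FRET peptide RET S1 were read kinetically at 340/490 nm to give NS3 protease activity, from which EC50 was derived.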

T1 sequence (P27958 1658-1714, looked up, stated change not applied): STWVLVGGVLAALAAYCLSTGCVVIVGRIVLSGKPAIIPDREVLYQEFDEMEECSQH
T1 sequence (P27958 1027-1657, looked up, stated change not applied): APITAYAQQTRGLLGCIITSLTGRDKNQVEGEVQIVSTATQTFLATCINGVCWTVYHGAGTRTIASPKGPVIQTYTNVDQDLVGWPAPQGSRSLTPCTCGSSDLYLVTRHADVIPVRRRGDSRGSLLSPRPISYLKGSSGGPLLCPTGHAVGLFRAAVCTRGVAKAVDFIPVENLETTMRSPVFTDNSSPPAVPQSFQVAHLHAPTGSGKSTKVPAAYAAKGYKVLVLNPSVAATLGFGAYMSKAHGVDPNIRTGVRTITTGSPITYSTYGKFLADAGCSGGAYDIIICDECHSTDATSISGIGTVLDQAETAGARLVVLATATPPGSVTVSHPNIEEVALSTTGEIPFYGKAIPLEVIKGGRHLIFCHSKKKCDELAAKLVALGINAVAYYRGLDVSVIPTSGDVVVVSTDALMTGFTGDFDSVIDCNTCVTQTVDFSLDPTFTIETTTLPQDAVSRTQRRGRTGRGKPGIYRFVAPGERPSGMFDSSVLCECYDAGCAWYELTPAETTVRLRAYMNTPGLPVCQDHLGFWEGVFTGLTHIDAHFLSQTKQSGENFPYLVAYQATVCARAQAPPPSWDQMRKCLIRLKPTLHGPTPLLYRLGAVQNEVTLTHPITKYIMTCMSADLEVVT

SMILES | IC50 [1] [nM] | EC50 [2] [nM]
C=C[C@@H]1C[C@]1(NC(=O)[C@@H]1C[C@@H](Oc2cc(-c3ccccc3)nc3cc(OC)ccc23)CN1C(=O)[C@@H](NC(=O)OC(C)(C)C)C(C)(C)C)C(=O)NS(=O)(=O)C1(Cc2ccc(F)cc2)CC1 [Compound 40, {1-[2-{1-[1-(4-Fluoro-benzyl)-cyclopropanesulfonylaminocarbonyl]-2-vinyl-cyclopropylcarbamoyl}-4-(7-methoxy-2-phenyl-quinolin-4-yloxy)-pyrrolidine-1-carbonyl]-2,2-dimethyl-propyl}-carbamic acid tert-butyl ester] | < 50 | 50 to 500
C=C[C@@H]1C[C@]1(NC(=O)[C@@H]1C[C@@H](Oc2cc(-c3ccccc3)nc3cc(OC)ccc23)CN1C(=O)[C@@H](NC(=O)OC(C)(C)C)C(C)(C)C)C(=O)NS(=O)(=O)C1(Cc2ccccc2F)CC1 [Compound 41, {1-[2-{1-[1-(2-Fluoro-benzyl)-cyclopropanesulfonylaminocarbonyl]-2-vinyl-cyclopropylcarbamoyl}-4-(7-methoxy-2-phenyl-quinolin-4-yloxy)-pyrrolidine-1-carbonyl]-2,2-dimethyl-propyl}-carbamic acid tert-butyl ester] | < 50 | 50 to 500
C=C[C@@H]1C[C@]1(NC(=O)[C@@H]1C[C@@H](Oc2cc(-c3ccccc3)nc3cc(OC)ccc23)CN1C(=O)[C@@H](NC(=O)OC(C)(C)C)C(C)(C)C)C(=O)NS(=O)(=O)C1(Cc2ccc(OC)cc2)CC1 [Compound 42, {1-[2-{1-[1-(4-Methoxy-benzyl)-cyclopropanesulfonylaminocarbonyl]-2-vinyl-cyclopropylcarbamoyl}-4-(7-methoxy-2-phenyl-quinolin-4-yloxy)-pyrrolidine-1-carbonyl]-2,2-dimethyl-propyl}-carbamic acid tert-butyl ester] | 50 to 500 | 50 to 500
C=C[C@@H]1C[C@]1(NC(=O)[C@@H]1C[C@@H](Oc2cc(-c3ccccc3)nc3cc(OC)ccc23)CN1C(=O)[C@@H](NC(=O)OC(C)(C)C)C(C)(C)C)C(=O)NS(=O)(=O)C1(C(=C)C)CC1 [Compound 43, {1-[2-[1-(1-Isopropenyl-cyclopropanesulfonylaminocarbonyl)-2-vinyl-cyclopropylcarbamoyl]-4-(7-methoxy-2-phenyl-quinolin-4-yloxy)-pyrrolidine-1-carbonyl]-2,2-dimethyl-propyl}-carbamic acid tert-butyl ester] | < 50 | < 50
C=C[C@@H]1C[C@]1(NC(=O)[C@@H]1C[C@@H](Oc2cc(-c3ccccc3)nc3cc(OC)ccc23)CN1C(=O)[C@@H](NC(=O)OC(C)(C)C)C(C)(C)C)C(=O)NS(=O)(=O)C1(C=C(C)C)CC1 [Compound 44, [1-(4-(7-Methoxy-2-phenyl-quinolin-4-yloxy)-2-{1-[1-(2-methyl-propenyl)-cyclopropanesulfonylaminocarbonyl]-2-vinyl-cyclopropylcarbamoyl}-pyrrolidine-1-carbonyl)-2,2-dimethyl-propyl]-carbamic acid tert-butyl ester] | < 50 | 50 to 500
C=C[C@@H]1C[C@]1(NC(=O)[C@@H]1C[C@@H](Oc2cc(-c3ccccc3)nc3cc(OC)ccc23)CN1C(=O)[C@@H](NC(=O)OC(C)(C)C)C(C)(C)C)C(=O)NS(=O)(=O)C1(CC#CCC)CC1 [Compound 45, (1-{4-(7-Methoxy-2-phenyl-quinolin-4-yloxy)-2-[1-(1-pent-2-ynyl-cyclopropanesulfonylaminocarbonyl)-2-vinyl-cyclopropylcarbamoyl]-pyrrolidine-1-carbonyl}-2,2-dimethyl-propyl)-carbamic acid tert-butyl ester] | < 50 | < 50
C=C[C@@H]1C[C@]1(NC(=O)[C@@H]1C[C@@H](Oc2cc(-c3ccccc3)nc3cc(OC)ccc23)CN1C(=O)[C@@H](NC(=O)OC(C)(C)C)C(C)(C)C)C(=O)NS(=O)(=O)C1(Cc2ncoc2-c2ccccc2)CC1 [Compound 46] | < 50 | < 50
C=C[C@@H]1C[C@]1(NC(=O)[C@@H]1C[C@@H](Oc2cc(-c3ccccc3)nc3cc(OC)ccc23)CN1C(=O)[C@@H](NC(=O)OC(C)(C)C)C(C)(C)C)C(=O)NS(=O)(=O)C1(Cc2ccncc2)CC1 [Compound 47] | < 50 | < 50
C=C[C@@H]1C[C@]1(NC(=O)[C@@H]1C[C@@H](Oc2cc(-c3ccccc3)nc3cc(OC)ccc23)CN1C(=O)[C@@H](NC(=O)OC(C)(C)C)C(C)(C)C)C(=O)NS(=O)(=O)C1(Cc2ccccn2)CC1 [Compound 48, (1-{4-(7-Methoxy-2-phenyl-quinolin-4-yloxy)-2-[1-(1-pyridin-2-ylmethyl-cyclopropanesulfonylaminocarbonyl)-2-vinyl-cyclopropylcarbamoyl]-pyrrolidine-1-carbonyl}-2,2-dimethyl-propyl)-carbamic acid tert-butyl ester] | < 50 | < 50
C=C[C@@H]1C[C@]1(NC(=O)[C@@H]1C[C@@H](Oc2cc(-c3ccccc3)nc3cc(OC)ccc23)CN1C(=O)[C@@H](NC(=O)OC(C)(C)C)C(C)(C)C)C(=O)NS(=O)(=O)C1(Cc2cccnc2)CC1 [Compound 49, (1-{4-(7-Methoxy-2-phenyl-quinolin-4-yloxy)-2-[1-(1-pyridin-3-ylmethyl-cyclopropanesulfonylaminocarbonyl)-2-vinyl-cyclopropylcarbamoyl]-pyrrolidine-1-carbonyl}-2,2-dimethyl-propyl)-carbamic acid tert-butyl] | < 50 | 50 to 500
C=C[C@@H]1C[C@]1(NC(=O)[C@@H]1C[C@@H](Oc2cc(-c3ccccc3)nc3cc(OC)ccc23)CN1C(=O)[C@@H](NC(=O)OC(C)(C)C)C(C)(C)C)C(=O)NS(=O)(=O)C1(Cc2c(C)noc2C)CC1 [Compound 50, {1-[2-{1-[1-(3,5-Dimethyl-isoxazol-4-ylmethyl)-cyclopropanesulfonylaminocarbonyl]-2-vinyl-cyclopropylcarbamoyl}-4-(7-methoxy-2-phenyl-quinolin-4-yloxy)-pyrrolidine-1-carbonyl]-2,2-dimethyl-propyl}-carbamic acid tert-butyl ester] | 50 to 500 | 500 to 5000
C=C[C@@H]1C[C@]1(NC(=O)[C@@H]1C[C@@H](Oc2cc(-c3ccccc3)nc3cc(OC)ccc23)CN1C(=O)[C@@H](NC(=O)OC(C)(C)C)C(C)(C)C)C(=O)NS(=O)(=O)C1(Cc2cc(C)on2)CC1 [Compound 51, [1-(4-(7-Methoxy-2-phenyl-quinolin-4-yloxy)-2-{1-[1-(5-methyl-isoxazol-3-ylmethyl)-cyclopropanesulfonylaminocarbonyl]-2-vinyl-cyclopropylcarbamoyl}-pyrrolidine-1-carbonyl)-2,2-dimethyl-propyl]-carbamic acid tert-butyl ester] | < 50 | < 50
C=C[C@@H]1C[C@]1(NC(=O)[C@@H]1C[C@@H](Oc2cc(-c3ccccc3)nc3cc(OC)ccc23)CN1C(=O)[C@@H](NC(=O)OC(C)(C)C)C(C)C)C(=O)NS(=O)(=O)C1(CC2CC2)CC1 [Compound 52, {1-[2-[1-(1-Cyclopropylmethyl-cyclopropanesulfonylaminocarbonyl)-2-vinyl-cyclopropylcarbamoyl]-4-(7-methoxy-2-phenyl-quinolin-4-yloxy)-pyrrolidine-1-carbonyl]-2-methyl-propyl}-carbamic acid tert-butyl ester] | < 50 | < 50
C=C[C@@H]1C[C@]1(NC(=O)[C@@H]1C[C@@H](Oc2cc(-c3ccccc3)nc3cc(OC)ccc23)CN1C(=O)[C@@H](NC(=O)OC(C)(C)C)C(C)C)C(=O)NS(=O)(=O)C1(CCOC)CC1 [Compound 53, {1-[2-{1-[1-(2-Methoxy-ethyl)-cyclopropanesulfonylaminocarbonyl]-2-vinyl-cyclopropylcarbamoyl}-4-(7-methoxy-2-phenyl-quinolin-4-yloxy)-pyrrolidine-1-carbonyl]-2-methyl-propyl}-carbamic acid tert-butyl ester] | < 50 | < 50
C=C[C@@H]1C[C@]1(NC(=O)[C@@H]1C[C@@H](Oc2cc(-c3ccccc3)nc3cc(OC)ccc23)CN1C(=O)[C@@H](NC(=O)OC(C)(C)C)C(C)C)C(=O)NS(=O)(=O)C1(COC)CC1 [Compound 54, {1-[2-[1-(1-Methoxymethyl-cyclopropanesulfonylaminocarbonyl)-2-vinyl-cyclopropylcarbamoyl]-4-(7-methoxy-2-phenyl-quinolin-4-yloxy)-pyrrolidine-1-carbonyl]-2-methyl-propyl]-carbamic acid tert-butyl ester] | < 50 | < 50
C=C[C@@H]1C[C@]1(NC(=O)[C@@H]1C[C@@H](Oc2cc(-c3ccccc3)nc3cc(OC)ccc23)CN1C(=O)[C@@H](NC(=O)OC1CCCC1)C(C)(C)C)C(=O)NS(=O)(=O)C1(Cc2ccccc2)CC1 [Compound 55, {1-[2-[1-(1-Benzyl-cycloprolanesulfonylaminocarbonyl)-2-vinyl-cycloproylcarbamoyl]-4-(7-methoxy-2-phenyl-quinolin-4-yloxy)-pyrrolidine-1-carbonyl]-2,2-dimethyl-propyl}-carbamic acid cyclopentyl ester] | < 50 | 50 to 500
